The text below walks through data of patent US5989596A, “Compositions comprising a depigmenting agent consisting of sulfites and metabisulfites and plant extracts for use in inhibiting melanogenesis or for depigmenting” (Coletica, priority 1997, dated 1999).

Each structure is given as a SMILES string.

Data set [1] has as its system human melanocytes. The conditions noted are these: J. Soc. Cosmeti. Chem. 42, 361-368 (1991); cited from earlier work.
For data set [2], the target named is T1, endogenous tyrosinase in melanocytes of human skin explants (Homo sapiens, UniProt P14679).
T1 construct: oxidation of exogenous L-DOPA by endogenous tyrosinase; from tissue; host or cells: human abdominal skin explants from plastic surgery (melanocytes)
T1 sequence (P14679 19-529): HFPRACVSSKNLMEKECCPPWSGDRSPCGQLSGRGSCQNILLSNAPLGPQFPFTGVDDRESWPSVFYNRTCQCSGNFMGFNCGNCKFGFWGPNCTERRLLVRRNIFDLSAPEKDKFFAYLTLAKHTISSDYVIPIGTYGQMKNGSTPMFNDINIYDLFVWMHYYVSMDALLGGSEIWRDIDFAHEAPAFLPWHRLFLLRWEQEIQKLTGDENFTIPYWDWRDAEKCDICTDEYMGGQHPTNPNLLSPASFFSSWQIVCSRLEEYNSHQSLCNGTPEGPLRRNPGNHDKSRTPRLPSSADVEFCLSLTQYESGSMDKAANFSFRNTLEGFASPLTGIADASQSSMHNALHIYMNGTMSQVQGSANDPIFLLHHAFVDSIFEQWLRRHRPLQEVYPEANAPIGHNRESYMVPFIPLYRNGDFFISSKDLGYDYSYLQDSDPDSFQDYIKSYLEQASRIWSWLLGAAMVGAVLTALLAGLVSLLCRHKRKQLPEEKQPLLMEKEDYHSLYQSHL
Nature of the data set: Ex vivo tissue model on human skin explant, histochemical L-DOPA reaction (anti-tyrosinase activity). The class given is cell-based. The conditions noted are these: 0.55% (w/v), with L-DOPA 0.05 M, 15 hours at 37° C.
Protocol: The oxidation of L-Dopa by the tyrosinase produces, in the melanocytes, a black pigment precursor of melanin which is easily detectable by optical microscopy with white light. The tyrosinase activity is determined by the intensity of the calorimetric reaction obtained.
A positive control and a negative control are also carried out in parallel.
The various products in the study are incubated in the presence of L-DOPA (0.05 M) for 15 hours at 37° C.
After fixing and inclusion in paraffin, the sections are colored with hemalun/eosin/saffron and with cresyl violet, they are then observed in white light by optical microscopy.
The tyrosinase activity is determined by the intensity of the calorimetric reaction obtained.

For data set [3], the system named is isolated tyrosinase. Nature of the data set: In vitro test of the inhibition of isolated tyrosinase (rate of dopachrome formation from L-Dopa, 475 nm). It counts as biochemical. From the text: It is known that tyrosinase is capable of catalyzing the formation of L-Dopaquinone and then dopachrome from L-Dopa. Now, dopachrome is a colored compound whose appearance is possible to follow by UV visible spectrophotometry at 475 nm. The use of an active capable of modifying the enzymatic activity manifests itself by a variation of the rate of appearance of this colored molecule.
The ratio of the rates of formation of dopachrome enable precisely determining the activations or the inhibitions obtained with the different molecules tested.
The anti-tyrosinase activity was measured, for various concentrations of this composition, by simple dilution with demineralized water.

Data set [4] can be described thus: Organoleptic (smell) and stability tests on storage, 4 weeks at 45° C. It counts as physicochemical. The conditions noted are these: pH 6.5, 4 weeks at 45° C. The method, then: Organoleptic tests have even been carried out on 5% sodium sulfite solutions or with 10% of a mulberry extract or 10 or with 20% with a lemon extract. These tests were led over 4 weeks at 45° C. at pH 5.5 and 6.5.
Also, organoleptic tests are then carried out on 5% sodium metabisulfite solutions with or without either 20% of a saxifrage extract or 10% of a grapefruit extract. These tests were led over 4 weeks at 45° C. at pH 5.5 and 6.5.
Organoleptic tests were also carried out on 5% potassium sulfite solutions with or without either 20% of a grape extract, or 10% of an oughon extract. It is to be noted that oughon is also called Scutelaria. These tests were led over 4 weeks at 45° C. at pH 5.5 and 6.5.
Organoleptic tests are then carried out on 5% potassium metabisulfite solutions with or without either 10% of a saxifrage extract, or 5% of an oughon extract +10% of a grapefruit extract. These tests were also led over 4 weeks at 45° C. at pH 5.5 and 6.5.

Regarding `O=C1O[C@H]([C@@H](O)CO)C(O)=C1O` [ascorbic acid], the “IC50 (concentration for which half of the cells placed in culture are no longer living)” value in data set [1] was 880 µg/mL.

Regarding `Oc1ccc(O)cc1` [hydroquinone], the “inhibition of the formation of melanic pigments” value in data set [2] is given as “totally inhibits”.

Consider `O=S([O-])S(=O)(=O)[O-].[K+].[K+]` [potassium metabisulfite], for which the “Results (inhibition) of tyrosinase” value in data set [3] (concentration level 0.01%) is reported as “more than 90%”; in data set [3] (concentration level 0.1%), 93.63%; in data set [3] (concentration level 1%) it was 100%; in data set [3] (concentration level 10%), 100%.

Turning to `O=S([O-])[O-].[K+].[K+]` [potassium sulfite], the “smell (organoleptic test)” value in data set [4] is “very strong smell”. Moreover, the “Results (inhibition) of tyrosinase” value in data set [3] (concentration level 0.01%) is “more than 80%”; in data set [3] (concentration level 0.1%) it was 98.10%; in data set [3] (concentration level 1%), 92.7%; in data set [3] (concentration level 10%), 100%.

Turning to `O=S([O-])S(=O)(=O)[O-].[Na+].[Na+]` [sodium metabisulfite], in data set [4], the “smell (organoleptic test)” value is recorded as “very strong smell”. Further, in data set [3] (concentration 0.01%), the “tyrosinase inhibition (in words)” value is on record as “almost total”. Moreover, the “Results (inhibition) of tyrosinase” value in data set [3] (concentration level 0.1%), in data set [3] (concentration level 1%) and in data set [3] (concentration level 10%) was 100% each time.

In the case of `O=S([O-])[O-].[Na+].[Na+]` [sodium sulfite], the “Results (inhibition) of tyrosinase” value amounted to 93.7% in data set [3] (concentration level 0.01%), 100% in data set [3] (concentration level 0.1%), 100% in data set [3] (concentration level 1%) and 100% in data set [3] (concentration level 10%).
